Where two headings read alike, the source gives them in different places.

For experiment [1], the system named is acetic acid induced writhing. The experiment in a line: Acetic acid-induced writhing model (antinociceptive activity). The format is in vivo. Particulars: acetic acid induced pain model, ICR mice (n = 6), iv. How it is done:
In Vivo (ED50) Determination, Using Acetic Acid-Induced Writhing Model
The acetic acid induced writhing assay can detect antinociceptive activity for opioid drug, acting at peripheral, spinal and supraspinal levels. Animals were fasted 12 to 16 h prior testing. The nociceptive response (abdominal contractions or writhes) was induced by diluted acetic acid (0.6%, 10 ml/kg, for mice and 2.5%, 0.5 ml/rat) administered intraperitoneally (i.p.) at time 0 min.
In mouse experiments, compounds were administered orally, intravenously (i.v.) or subcutaneously (s.c.). To determine the antinociceptive potency and efficacy, full dose-response curves were constructed with test compounds, given 5 min prior to acetic acid administration. The duration of action was determined by using increasing pretreatment time (5, 60, and 120 min.), prior to acetic acid administration, for a sub-maximally effective dose defined during the dose-response curve study. In rat experiments, compounds were administered orally, intravenously (i.v.) or subcutaneously (s.c.), 15 min prior to acetic acid administration. The number of writhes was counted over the 15 min period following acetic acid administration. A writhe is defined as a constriction of the abdominal area, often with extension of the hind legs. Percentage maximum possible effect (MPE) was calculated as: % MPE=100−[(No. of writhes in test compound treated animal/No. of writhes in vehicle treated animal)]×100. ED50 dose was determined using GraphPad Prism.

For experiment [2], the target named is T1, Kappa (κ) opioid receptors (KOR) (Homo sapiens, UniProt P41145).
T1 construct: host or cells: unnamed cells grown in Ham's F-12 medium
T1 sequence (P41145 whole entry): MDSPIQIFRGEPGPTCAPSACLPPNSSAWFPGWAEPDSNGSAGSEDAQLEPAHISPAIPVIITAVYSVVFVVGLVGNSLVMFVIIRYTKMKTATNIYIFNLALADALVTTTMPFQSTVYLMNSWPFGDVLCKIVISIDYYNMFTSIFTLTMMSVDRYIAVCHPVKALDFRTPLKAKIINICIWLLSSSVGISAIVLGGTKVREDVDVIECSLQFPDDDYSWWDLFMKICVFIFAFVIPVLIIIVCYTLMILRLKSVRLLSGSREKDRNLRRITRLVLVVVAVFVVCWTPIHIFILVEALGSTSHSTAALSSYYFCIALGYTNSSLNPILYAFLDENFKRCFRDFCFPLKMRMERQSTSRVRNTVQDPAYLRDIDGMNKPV
The experiment in a line: In vitro KOR agonistic activity, cAMP based functional assay. The format is cell-based. How it is done: a) In Vitro (EC50) Determination, Using cAMP Based Functional Assay:
In vitro, KOR agonistic activity of test compounds were assessed using cAMP based functional assay. A 96-well plate was seeded at the density of 30,000 cells/well in 100 μl/well of complete Ham's F-12 medium. After seeding, the plates were incubated overnight at 37° C., 5% CO2, in CO2 Incubator. Overnight medium was discarded and plate washed with 100 μl/well of sterile PBS. Then 90 μl of 0.1 mM IBMX containing 0.5% Fatty acid free BSA in plain HamsF12 was added to each well. This was allowed to incubate for 30 minutes at 37° C., 5% CO2. Forskolin 20 μM in 0.5% Fatty acid free BSA was added to each well and allowed to incubate at room temperature for 5 minutes. Dilution of test compounds was made at 200× in DMSO and then diluted 1:10 times in BSA containing plain HamsF12. Agonist (test compounds, in 10% DMSO) was added to each well (5 μl) and allowed to incubate for 20 minutes at 37° C., 5% CO2. After 20 minutes, media was aspirated from the wells and the wells were washed with 1×PBS. Cell lysis buffer 4× (Arbor Assays, Cat # X074-60 ML) was diluted 1:4 in MilliQ and 90 μl of this buffer was added per well. Cells were allowed to shake at 500 rpm, room temperature for 20 minutes. Cell lysate was collected in 1.5 ml eppendorf tubes and centrifuged at 13.2 k rpm, 4° C. for 15 minutes. 50 μl of the supernatant of cell lysate was then used for cAMP estimation by cAMP direct ELISA kit (Arbor Assays, Cat # K019-H5).

Setting [3] is: cAMP based functional assay, forskolin stimulated, read-out: In-vitro EC50.
The mark [4] stands for this setting: refers to Table-4, read-out: in vitro KOR agonistic activity EC50.

On to `CC(C)CC(NC(=O)C(Cc1ccccc1)NC(=O)C(N)Cc1ccccc1)C(=O)NC(CCCCN)C(=O)N1CC2CN(CC(=O)O)CC2C1` (stereo not drawn) [Compound 16], for which the “In-vivo ED50” value in experiment [1] was found to be 0.1 mpk. Moreover, the EC50 (commonly the concentration at which the effect is half-maximal) in experiment [2] (setting [3]) is 0.004 nM; in experiment [2] (setting [4]), < 0.1 nM.
On the same counts, the results for `CCOC(=O)CN1CC2CC(C1)N2C(=O)C(CCCCN)NC(=O)C(CC(C)C)NC(=O)C(Cc1ccccc1)NC(=O)C(N)Cc1ccccc1` (stereo not drawn) [Compound 35] are 0.03 mpk, 0.01 nM and < 0.1 nM.

The values are drawn from patent US10550150B2, “Short-chain peptides as Kappa (κ) opioid receptors (KOR) agonist” (CADILA HEALTHCARE LIMITED, priority 2015, dated 2020).
